Experimental data published in publication PMC5218480 (PLoS ONE, 2017).

System: MV-4-11 cells
Assay: Gene expression microarray analysis (Affymetrix PrimeView) and GSEA
Assay type: cell-based, human
Design: RFU PODN (11730768_x_at) / Fold change /veh PODN (11730768_x_at) / RFU LINC00158 (11744669_a_at) / Fold change /veh LINC00158 (11744669_a_at) / RFU DUSP10 (11751237_a_at) / Fold change /veh DUSP10 (11751237_a_at) / RFU ID3 (11757404_x_at) / Fold change /veh ID3 (11757404_x_at) / RFU PLEKHG5 (11737974_s_at) / Fold change /veh PLEKHG5 (11737974_s_at) / RFU LRRC4B (11730491_at) / Fold change /veh LRRC4B (11730491_at) / RFU GIMAP4 (11747438_a_at) / Fold change /veh GIMAP4 (11747438_a_at) / RFU KRT8 (11758183_x_at) / Fold change /veh KRT8 (11758183_x_at) / RFU CNN1 (11734310_a_at) / Fold change /veh CNN1 (11734310_a_at) / RFU VPS37D (11726825_at) / Fold change /veh VPS37D (11726825_at) / RFU C10orf10 (11716522_x_at) / Fold change /veh C10orf10 (11716522_x_at) / RFU KIR2DL2 /// KIR2DL4 /// KIR2DL5A /// KIR2DL5B /// KIR2DS1 /// KIR2DS2 /// KIR2DS3 /// KIR2DS4 /// KIR3DL3 /// KIR3DL3 /// KIR3DS1 (11738374_at) / Fold change /veh KIR2DL2 /// KIR2DL4 /// KIR2DL5A /// KIR2DL5B /// KIR2DS1 /// KIR2DS2 /// KIR2DS3 /// KIR2DS4 /// KIR3DL3 /// KIR3DL3 /// KIR3DS1 (11738374_at) / RFU C1QL1 (11718748_at) / Fold change /veh C1QL1 (11718748_at) / RFU TMPRSS4 (11747572_a_at) / Fold change /veh TMPRSS4 (11747572_a_at) / RFU HAMP (11756126_x_at) / Fold change /veh HAMP (11756126_x_at) / RFU RNFT2 (11725882_a_at) / Fold change /veh RNFT2 (11725882_a_at) / RFU NR4A2 (11747474_a_at) / Fold change /veh NR4A2 (11747474_a_at) / RFU ABCC12 (11746883_a_at) / Fold change /veh ABCC12 (11746883_a_at) / RFU TMEM136 (11760407_x_at) / Fold change /veh TMEM136 (11760407_x_at) / RFU CLDN22 /// WWC2 (11732394_at) / Fold change /veh CLDN22 /// WWC2 (11732394_at) / RFU HLA-DPB1 (11760878_x_at) / Fold change /veh HLA-DPB1 (11760878_x_at) / RFU SPINT1 (11716480_a_at) / Fold change /veh SPINT1 (11716480_a_at) / RFU GAP43 (11754022_s_at) / Fold change /veh GAP43 (11754022_s_at) / RFU A4GNT (11735810_at) / Fold change /veh A4GNT (11735810_at) / RFU PRB3 (11715151_x_at) / Fold change /veh PRB3 (11715151_x_at) / RFU TUBB4B (11761932_at) / Fold change /veh TUBB4B (11761932_at) / RFU CAPN14 (11732068_a_at) / Fold change /veh CAPN14 (11732068_a_at) / RFU TMCC2 (11721928_a_at) / Fold change /veh TMCC2 (11721928_a_at) / RFU IRGQ (11745062_a_at) / Fold change /veh IRGQ (11745062_a_at) / RFU FAM174B (11720279_a_at) / Fold change /veh FAM174B (11720279_a_at) / RFU TMPRSS4 (11748680_a_at) / Fold change /veh TMPRSS4 (11748680_a_at) / RFU FAM212B (11763350_a_at) / Fold change /veh FAM212B (11763350_a_at) / RFU PLEKHG5 (11743358_a_at) / Fold change /veh PLEKHG5 (11743358_a_at) / RFU ZSCAN30 (11745921_a_at) / Fold change /veh ZSCAN30 (11745921_a_at) / RFU CMKLR1 (11741424_a_at) / Fold change /veh CMKLR1 (11741424_a_at) / RFU LOC101060620 /// MAPK8IP1 (11723275_at) / Fold change /veh LOC101060620 /// MAPK8IP1 (11723275_at) / RFU SPTSSB (11747773_x_at) / Fold change /veh SPTSSB (11747773_x_at) / RFU PRSS12 (11739890_at) / Fold change /veh PRSS12 (11739890_at) / RFU BIN1 (11741810_x_at) / Fold change /veh BIN1 (11741810_x_at) / RFU WNT11 (11732464_a_at) / Fold change /veh WNT11 (11732464_a_at) / RFU C10orf10 (11716521_a_at) / Fold change /veh C10orf10 (11716521_a_at) / RFU C5orf56 (11738089_at) / Fold change /veh C5orf56 (11738089_at) / RFU CYB561 (11721691_x_at) / Fold change /veh CYB561 (11721691_x_at) / RFU ANKRD19P (11752326_a_at) / Fold change /veh ANKRD19P (11752326_a_at) / RFU OR2T12 /// OR2T33 /// OR2T8 (11738714_s_at) / Fold change /veh OR2T12 /// OR2T33 /// OR2T8 (11738714_s_at) / RFU VCAN (11748164_a_at) / Fold change /veh VCAN (11748164_a_at) / RFU JSRP1 (11732532_at) / Fold change /veh JSRP1 (11732532_at) / RFU KRTAP10-11 (11738290_x_at) / Fold change /veh KRTAP10-11 (11738290_x_at) / RFU MYO3A (11730013_a_at) / Fold change /veh MYO3A (11730013_a_at) / RFU EBF3 (11725865_a_at) / Fold change /veh EBF3 (11725865_a_at) / RFU CAMK2N1 (11719241_x_at) / Fold change /veh CAMK2N1 (11719241_x_at) / RFU C5orf56 (11738088_a_at) / Fold change /veh C5orf56 (11738088_a_at) / RFU OLFML3 (11715873_a_at) / Fold change /veh OLFML3 (11715873_a_at) / RFU LOC100653217 /// NTM (11731650_a_at) / Fold change /veh LOC100653217 /// NTM (11731650_a_at) / RFU MAPK11 (11762145_a_at) / Fold change /veh MAPK11 (11762145_a_at) / RFU FIZ1 (11724087_x_at) / Fold change /veh FIZ1 (11724087_x_at) / RFU OASL (11726364_x_at) / Fold change /veh OASL (11726364_x_at) / RFU SOX15 (11748057_x_at) / Fold change /veh SOX15 (11748057_x_at) / RFU CD79A (11719716_a_at) / Fold change /veh CD79A (11719716_a_at) / RFU HIST1H1D (11736915_at) / Fold change /veh HIST1H1D (11736915_at) / RFU CASKIN2 (11723855_a_at) / Fold change /veh CASKIN2 (11723855_a_at) / RFU LOC730098 (11760151_x_at) / Fold change /veh LOC730098 (11760151_x_at) / RFU OR4N2 (11742367_at) / Fold change /veh OR4N2 (11742367_at) / RFU PRRT2 (11749266_a_at) / Fold change /veh PRRT2 (11749266_a_at) / RFU SNX32 (11753110_a_at) / Fold change /veh SNX32 (11753110_a_at) / RFU CDHR5 (11726645_a_at) / Fold change /veh CDHR5 (11726645_a_at) / RFU RCAN1 (11760418_a_at) / Fold change /veh RCAN1 (11760418_a_at) / RFU FAM167A (11723789_a_at) / Fold change /veh FAM167A (11723789_a_at) / RFU FAM26E (11764081_at) / Fold change /veh FAM26E (11764081_at) / RFU ISYNA1 (11749810_s_at) / Fold change /veh ISYNA1 (11749810_s_at) / RFU ACY1 (11761880_at) / Fold change /veh ACY1 (11761880_at) / RFU 11764098_at / Fold change /veh 11764098_at / RFU SAMD14 (11745864_x_at) / Fold change /veh SAMD14 (11745864_x_at) / RFU NPB (11741838_a_at) / Fold change /veh NPB (11741838_a_at) / RFU TMPRSS6 (11731388_a_at) / Fold change /veh TMPRSS6 (11731388_a_at) / RFU KRTAP10-2 (11738614_at) / Fold change /veh KRTAP10-2 (11738614_at) / RFU ARHGAP8 /// PRR5-ARHGAP8 (11727945_x_at) / Fold change /veh ARHGAP8 /// PRR5-ARHGAP8 (11727945_x_at) / RFU KRTAP5-7 /// NADSYN1 (11734609_at) / Fold change /veh KRTAP5-7 /// NADSYN1 (11734609_at) / RFU RASL12 (11751679_a_at) / Fold change /veh RASL12 (11751679_a_at) / RFU CDKN2B (11736163_a_at) / Fold change /veh CDKN2B (11736163_a_at) / RFU PRF1 (11729649_at) / Fold change /veh PRF1 (11729649_at) / RFU, ZNF638 /// ZNF638-IT1 / Fold change vs veh, ZNF638 /// ZNF638-IT1 / RFU, PANK3 / Fold change vs veh, PANK3 / RFU, SH3YL1 / Fold change vs veh, SH3YL1 / RFU, ZEB2 / Fold change vs veh, ZEB2 / RFU, NRIP1 / Fold change vs veh, NRIP1 / RFU, PTTG1IP / Fold change vs veh, PTTG1IP / RFU, CAPN2 / Fold change vs veh, CAPN2 / RFU, MED14 / Fold change vs veh, MED14 / RFU, SNORA58 / Fold change vs veh, SNORA58 / RFU, C1orf63 / Fold change vs veh, C1orf63 / RFU, LRRFIP1 / Fold change vs veh, LRRFIP1 / RFU, NDUFAF7 / Fold change vs veh, NDUFAF7 / RFU, SLC12A2 / Fold change vs veh, SLC12A2 / RFU, IBTK / Fold change vs veh, IBTK / RFU, ESF1 / Fold change vs veh, ESF1 / Fold change vs veh, TMEM50B / RFU, TAOK1 / Fold change vs veh, TAOK1 / RFU, ACBD3 / Fold change vs veh, ACBD3 / RFU, TMA16 / Fold change vs veh, TMA16 / RFU, RWDD3 / Fold change vs veh, RWDD3 / RFU, BCAT1 / Fold change vs veh, BCAT1 / RFU, EDEM3 / Fold change vs veh, EDEM3 / RFU, TMEM33 / Fold change vs veh, TMEM33 / RFU, WDR75 / Fold change vs veh, WDR75 / RFU, AHCTF1 / Fold change vs veh, AHCTF1 / RFU, TFRC / Fold change vs veh, TFRC / RFU, ZDHHC17 / Fold change vs veh, ZDHHC17 / RFU, NOM1 / Fold change vs veh, NOM1 / RFU, ARL8B / Fold change vs veh, ARL8B / RFU, ZBTB11 / Fold change vs veh, ZBTB11 / RFU, TAMM41 / Fold change vs veh, TAMM41 / RFU, KIAA1704 /// LOC100996395 / Fold change vs veh, KIAA1704 /// LOC100996395 / RFU, ING1 / Fold change vs veh, ING1 / RFU, TRMT61B / Fold change vs veh, TRMT61B / RFU, FUBP3 / Fold change vs veh, FUBP3 / RFU, TP53 / Fold change vs veh, TP53 / RFU, TNKS2 / Fold change vs veh, TNKS2 / RFU, ZFP14 / Fold change vs veh, ZFP14 / RFU, ACTR2 / Fold change vs veh, ACTR2 / RFU, PPP3R1 / Fold change vs veh, PPP3R1 / RFU, PIK3R1 / Fold change vs veh, PIK3R1 / RFU, HNRNPA1 / Fold change vs veh, HNRNPA1 / RFU, RNF170 / Fold change vs veh, RNF170 / RFU, ZNF28 / Fold change vs veh, ZNF28 / RFU, RNGTT / Fold change vs veh, RNGTT / RFU, OGT / Fold change vs veh, OGT / RFU, BRD1 / Fold change vs veh, BRD1 / RFU, MARS / Fold change vs veh, MARS / RFU, ZNF655 / Fold change vs veh, ZNF655 / RFU, FAHD1 / Fold change vs veh, FAHD1 / RFU, BDP1 / Fold change vs veh, BDP1 / RFU, LRRCC1 / Fold change vs veh, LRRCC1 / RFU, ARID1A / Fold change vs veh, ARID1A / RFU, ZNF146 / Fold change vs veh, ZNF146 / RFU, ZNF330 / Fold change vs veh, ZNF330 / RFU, GPN3 / Fold change vs veh, GPN3 / RFU, C9orf123 / Fold change vs veh, C9orf123 / RFU, N4BP2L2 / Fold change vs veh, N4BP2L2 / RFU, ARFIP1 / Fold change vs veh, ARFIP1 / RFU, FAM179B / Fold change vs veh, FAM179B / RFU, BCL10 / Fold change vs veh, BCL10 / RFU, UHRF1BP1L / Fold change vs veh, UHRF1BP1L / RFU, BET1 / Fold change vs veh, BET1 / RFU, CNOT2 / Fold change vs veh, CNOT2 / RFU, ZNF268 / Fold change vs veh, ZNF268 / Fold change vs veh, ZNF507 / RFU, DGCR2 / Fold change vs veh, DGCR2 / RFU, WDSUB1 / Fold change vs veh, WDSUB1 / Fold change vs veh, HSP90B1 /// MIR3652 / RFU, ADSS / Fold change vs veh, ADSS / RFU, GK / Fold change vs veh, GK / RFU, ZNF148 / Fold change vs veh, ZNF148 / RFU, TAF9 / Fold change vs veh, TAF9 / RFU, SLC1A5 / Fold change vs veh, SLC1A5 / RFU, SLMO2 / Fold change vs veh, SLMO2 / RFU, ABCC4 / Fold change vs veh, ABCC4 / RFU, LOC101060439 /// RAP1B / Fold change vs veh, LOC101060439 /// RAP1B / RFU, RFX7 / Fold change vs veh, RFX7 / RFU, GTPBP10 / Fold change vs veh, GTPBP10 / RFU, CNEP1R1 / Fold change vs veh, CNEP1R1 / RFU, BIVM-ERCC5 /// ERCC5 / Fold change vs veh, BIVM-ERCC5 /// ERCC5 / RFU, ILF3 / Fold change vs veh, ILF3 / RFU 11762660_at / Fold change /veh 11762660_at / RFU VCAN (11757783_s_at) / Fold change /veh VCAN (11757783_s_at) / RFU DDX43 (11728927_at) / Fold change /veh DDX43 (11728927_at) / RFU KRT8 (11758188_x_at) / Fold change /veh KRT8 (11758188_x_at) / RFU NKD1 (11759106_at) / Fold change /veh NKD1 (11759106_at) / RFU SRD5A1 (11742802_a_at) / Fold change /veh SRD5A1 (11742802_a_at) / RFU TPSAB1 /// TPSB2 (11721975_s_at) / Fold change /veh TPSAB1 /// TPSB2 (11721975_s_at) / RFU GSTM3 (11746129_a_at) / Fold change /veh GSTM3 (11746129_a_at) / RFU IL23R (11737362_x_at) / Fold change /veh IL23R (11737362_x_at) / RFU TMEM51 (11727254_a_at) / Fold change /veh TMEM51 (11727254_a_at) / RFU PIWIL2 (11732686_x_at) / Fold change /veh PIWIL2 (11732686_x_at) / RFU ORM1 (11744905_x_at) / Fold change /veh ORM1 (11744905_x_at) / RFU CCDC152 (11743942_at) / Fold change /veh CCDC152 (11743942_at) / RFU ECM1 (11717891_a_at) / Fold change /veh ECM1 (11717891_a_at) / RFU IL23R (11748794_a_at) / Fold change /veh IL23R (11748794_a_at) / RFU TNFAIP8L3 (11732012_x_at) / Fold change /veh TNFAIP8L3 (11732012_x_at) / RFU MBOAT4 (11741988_at) / Fold change /veh MBOAT4 (11741988_at) / RFU 11764193_at / Fold change /veh 11764193_at / RFU TMEM53 (11763286_at) / Fold change /veh TMEM53 (11763286_at) / RFU MAGEB2 (11727129_at) / Fold change /veh MAGEB2 (11727129_at) / RFU TMEM200A (11744735_a_at) / Fold change /veh TMEM200A (11744735_a_at) / RFU CCDC152 (11751479_a_at) / Fold change /veh CCDC152 (11751479_a_at) / RFU FAM211A (11726209_a_at) / Fold change /veh FAM211A (11726209_a_at) / RFU RGS16 (11746705_a_at) / Fold change /veh RGS16 (11746705_a_at) / RFU VCAN (11755009_s_at) / Fold change /veh VCAN (11755009_s_at) / RFU RHOB (11743442_s_at) / Fold change /veh RHOB (11743442_s_at) / RFU RGS16 (11720943_a_at) / Fold change /veh RGS16 (11720943_a_at) / RFU RGS16 (11720944_at) / Fold change /veh RGS16 (11720944_at) / RFU, VPS4B / Fold change vs veh, VPS4B / RFU, CREB1 / Fold change vs veh, CREB1 / RFU, DNAJC13 / Fold change vs veh, DNAJC13 / RFU, GNAQ / Fold change vs veh, GNAQ / RFU, CDK5R1 / Fold change vs veh, CDK5R1 / RFU, ZRANB3 / Fold change vs veh, ZRANB3 / RFU, CUL4A / Fold change vs veh, CUL4A / RFU, CCNY / Fold change vs veh, CCNY / RFU, UFL1 / Fold change vs veh, UFL1 / RFU, COG3 / Fold change vs veh, COG3 / RFU, DIAPH2 / Fold change vs veh, DIAPH2 / RFU, SKA2 / Fold change vs veh, SKA2 / RFU, AFF3 / Fold change vs veh, AFF3 / RFU, LMF1 / Fold change vs veh, LMF1 / RFU, IPO11 / Fold change vs veh, IPO11 / RFU, DFFB / Fold change vs veh, DFFB / RFU, FOXP1 / Fold change vs veh, FOXP1 / RFU, CARD8 / Fold change vs veh, CARD8 / RFU, STRN3 / Fold change vs veh, STRN3 / RFU, ADK / Fold change vs veh, ADK / RFU, RASSF2 / Fold change vs veh, RASSF2 / RFU, WIPF1 / Fold change vs veh, WIPF1 / RFU, LARP1B / Fold change vs veh, LARP1B / RFU, RASA1 / Fold change vs veh, RASA1 / RFU, RB1 / Fold change vs veh, RB1 / RFU, PPFIA1 / Fold change vs veh, PPFIA1 / RFU, MAT2A / Fold change vs veh, MAT2A / RFU, CCT5 / Fold change vs veh, CCT5 / RFU, WDR92 / Fold change vs veh, WDR92 / RFU, CUX1 / Fold change vs veh, CUX1 / RFU, TTC7A / Fold change vs veh, TTC7A / RFU, TMEM135 / Fold change vs veh, TMEM135 / RFU, DEPTOR / Fold change vs veh, DEPTOR / RFU, CPM / Fold change vs veh, CPM / RFU, DNAJB6 / Fold change vs veh, DNAJB6 / RFU, CACNA2D3 / Fold change vs veh, CACNA2D3 / RFU, DTX4 / Fold change vs veh, DTX4 / RFU, TFCP2 / Fold change vs veh, TFCP2 / RFU, GMCL1 /// GMCL1P1 / Fold change vs veh, GMCL1 /// GMCL1P1 / RFU, AEBP2 / Fold change vs veh, AEBP2 / RFU, SNHG1 /// SNORD22 /// SNORD25 /// SNORD26 /// SNORD27 /// SNORD28 /// SNORD29 /// SNORD31 / Fold change vs veh, SNHG1 /// SNORD22 /// SNORD25 /// SNORD26 /// SNORD27 /// SNORD28 /// SNORD29 /// SNORD31 / Fold change (Aza/veh), C12orf56 (ProbeSet 11735607_a_at) / Fold change (ACY-1035/veh), C12orf56 (ProbeSet 11735607_a_at) / Fold change (Aza/veh), FGFR1OP (ProbeSet 11751329_s_at) / Fold change (ACY-1035/veh), FGFR1OP (ProbeSet 11751329_s_at) / Fold change (Aza/veh), VPS36 (ProbeSet 11739960_a_at) / Fold change (ACY-1035/veh), VPS36 (ProbeSet 11739960_a_at) / RFU SYPL1 (11715823_x_at) / Fold change /veh SYPL1 (11715823_x_at) / RFU IGFBP7 (11715501_s_at) / Fold change /veh IGFBP7 (11715501_s_at) / RFU REEP3 (11722064_at) / Fold change /veh REEP3 (11722064_at) / RFU IGLL1 (11728026_x_at) / Fold change /veh IGLL1 (11728026_x_at): dose or concentration left out as unconfirmed
Details: MV-4-11 cells, 48 hours

Q: `Nc1ccc(-c2cccs2)cc1NC(=O)c1ccc2c(c1)cc(C1CC1)n2CCN1CCOCC1` [ACY-1035] was tested. Which “RFU PRB3 (11715151_x_at)” value did it give?
A: The value was 8.09 RFU.
